Measured values reported in patent publication US9458153B2, “Dihydroquinolizinones for the treatment and prophylaxis of hepatitis B virus infection” (Hoffmann-La Roche Inc., priority 2014, dated 2016).
pIC50: −log10 of the molar value. Structures can show the parent of a compound that is named as a salt.

Test system: HBsAg
Assay: HBsAg assay (chemiluminescence immunoassay of secreted HBsAg in HepG2.2.15 culture supernatant)
Type: cell-based, HBV
Settings: HepG2.2.15 cells, CLIA kit
Method in brief: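 HepG2.2.15 cells, which constitutively express HBV, were seeded in duplicate and treated with three-fold serial compound dilutions at 1% DMSO final. Secreted HBsAg in culture supernatant was measured semi-quantitatively by chemiluminescence immunoassay. IC50 was extrapolated from dose-response curves.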

[1] = Hepatitis B virus, HepG2.2.15, HBsAg secretion reduced by 50% vs no drug control
[2] = HBsAg secretion reduced by 50% vs no drug control
[3] = HBsAg secretion reduced by 50% vs no drug control, hydrochloride

For `COc1cc2c(cc1OCCCO)CC(C(C)C)n1cc(C(=O)O)c(=O)cc1-2` (stereo not shown) [Example 147, 9-(3-hydroxypropoxy)-6-isopropyl-10-methoxy-2-oxo-6,7-dihydrobenzo[a]quinolizine-3-carboxylic acid], the pIC50 [1] was 7.52.

Work on `COCCCCOc1cc2c(cc1OC)-c1cc(=O)c(C(=O)O)cn1C(C(C)C)C2` (stereo not shown) [Example 148, 6-isopropyl-10-methoxy-9-(4-methoxybutoxy)-2-oxo-6,7-dihydrobenzo[a]quinolizine-3-carboxylic acid] yielded a pIC50 [1] of 8.30.

`COc1cc2c(cc1OCC(C)(C)CO)CC(C(C)(C)C)n1cc(C(=O)O)c(=O)cc1-2` (stereo not shown) [Example 149, 6-tert-butyl-9-(3-hydroxy-2,2-dimethyl-propoxy)-10-methoxy-2-oxo-6,7-dihydrobenzo[a]quinolizine-3-carboxylic acid] was tested, and the pIC50 [2] was 8.70.

Work on `COc1cc2c(cc1OCCCCCO)CC(C(C)(C)C)n1cc(C(=O)O)c(=O)cc1-2` (stereo not shown) [Example 152, 6-tert-butyl-9-(5-hydroxypentoxy)-10-methoxy-2-oxo-6,7-dihydrobenzo[a]quinolizine-3-carboxylic acid] yielded a pIC50 [2] of 8.70.

`COc1cc2c(cc1OCCCCCCO)CC(C(C)(C)C)n1cc(C(=O)O)c(=O)cc1-2` (stereo not shown) [Example 155, 6-tert-butyl-9-(6-hydroxyhexoxy)-10-methoxy-2-oxo-6,7-dihydrobenzo[a]quinolizine-3-carboxylic acid] gave a pIC50 [2] of 8.70.

In the case of `COc1cc2c(cc1OCCCCO)CC(C(C)(C)C)n1cc(C(=O)O)c(=O)cc1-2` (stereo not shown) [Example 158, 6-tert-butyl-9-(4-hydroxybutoxy)-10-methoxy-2-oxo-6,7-dihydrobenzo[a]quinolizine-3-carboxylic acid], the pIC50 [1] was 8.52.

Work on `COc1cc2c(cc1OCC#CCO)CC(C(C)(C)C)n1cc(C(=O)O)c(=O)cc1-2` (stereo not shown) [Example 159, 6-tert-butyl-9-(4-hydroxybut-2-ynoxy)-10-methoxy-2-oxo-6,7-dihydrobenzo[a]quinolizine-3-carboxylic acid] yielded a pIC50 [1] of 7.18.

`COc1cc2c(cc1OCCCCCCN)CC(C(C)(C)C)n1cc(C(=O)O)c(=O)cc1-2` (stereo not shown) [Example 160, 9-(6-aminohexoxy)-6-tert-butyl-10-methoxy-2-oxo-6,7-dihydrobenzo[a]quinolizine-3-carboxylic acid] gave a pIC50 [2] of 7.74.

For `COc1cc2c(cc1OCCCCCCNC(=O)OC(C)(C)C)CC(C(C)(C)C)n1cc(C(=O)O)c(=O)cc1-2` (stereo not shown) [Example 161, 9-[6-(tert-butoxycarbonylamino)hexoxy]-6-tert-butyl-10-methoxy-2-oxo-6,7-dihydrobenzo[a]quinolizine-3-carboxylic acid], the pIC50 [2] was 8.05.

For `COc1cc2c(cc1OCCCCCCCCN)CC(C(C)(C)C)n1cc(C(=O)O)c(=O)cc1-2` (stereo not shown) [Example 166, 9-(8-aminooctoxy)-6-tert-butyl-10-methoxy-2-oxo-6,7-dihydrobenzo[a]quinolizine-3-carboxylic acid], the pIC50 [2] was 8.22.

For `COc1cc2c(cc1OCCCCCCCCNC(=O)OC(C)(C)C)CC(C(C)(C)C)n1cc(C(=O)O)c(=O)cc1-2` (stereo not shown) [Example 167, 9-[8-(tert-butoxycarbonylamino)octoxy]-6-tert-butyl-10-methoxy-2-oxo-6,7-dihydrobenzo[a]quinolizine-3-carboxylic acid], the pIC50 [2] was 7.96.

`COc1cc2c(cc1OCCCCCNC(=O)OC(C)(C)C)CC(C(C)(C)C)n1cc(C(=O)O)c(=O)cc1-2` (stereo not shown) [Example 172, 9-[5-(tert-butoxycarbonylamino)pentoxy]-6-tert-butyl-10-methoxy-2-oxo-6,7-dihydrobenzo[a]quinolizine-3-carboxylic acid] showed a pIC50 [1] of 8.70.

`COc1cc2c(cc1OCCCCCNC(C)=O)CC(C(C)(C)C)n1cc(C(=O)O)c(=O)cc1-2` (stereo not shown) [Example 175, 9-(5-acetamidopentoxy)-6-tert-butyl-10-methoxy-2-oxo-6,7-dihydrobenzo[a]quinolizine-3-carboxylic acid] gave a pIC50 [1] of 7.48.

Molecule `COc1cc2c(cc1OCCCCCNS(C)(=O)=O)CC(C(C)(C)C)n1cc(C(=O)O)c(=O)cc1-2` (stereo not shown) [Example 176, 6-tert-butyl-9-[5-(methanesulfonamido)pentoxy]-10-methoxy-2-oxo-6,7-dihydrobenzo[a]quinolizine-3-carboxylic acid] has a pIC50 [1] of 8.52.

In the case of `COc1cc2c(cc1OCCN)CC(C(C)(C)C)n1cc(C(=O)O)c(=O)cc1-2` (stereo not shown) [Example 177, 9-(2-aminoethoxy)-6-tert-butyl-10-methoxy-2-oxo-6,7-dihydrobenzo[a]quinolizine-3-carboxylic acid], the pIC50 [1] was 5.86.

For `COc1cc2c(cc1OCCCOCCN)CC(C(C)(C)C)n1cc(C(=O)O)c(=O)cc1-2` (stereo not shown) [Example 178, 9-[3-(2-aminoethoxy)propoxy]-6-tert-butyl-10-methoxy-2-oxo-6,7-dihydrobenzo[a]quinolizine-3-carboxylic acid], the pIC50 [1] was 7.20.

`CCNCCOCCCOc1cc2c(cc1OC)-c1cc(=O)c(C(=O)O)cn1C(C(C)(C)C)C2` (stereo not shown) [Example 179, 6-tert-butyl-9-[3-[2-(ethylamino)ethoxy]propoxy]-10-methoxy-2-oxo-6,7-dihydrobenzo[a]quinolizine-3-carboxylic acid] gave a pIC50 [1] of 7.42.

`COc1cc2c(cc1OCCC(F)F)CC(C(C)(C)C)n1cc(C(=O)O)c(=O)cc1-2` (stereo not shown) [Example 180, 6-tert-butyl-9-(3,3-difluoropropoxy)-10-methoxy-2-oxo-6,7-dihydrobenzo[a]quinolizine-3-carboxylic acid] showed a pIC50 [1] of 8.40.

`CCC(F)(F)Oc1cc2c(cc1OC)-c1cc(=O)c(C(=O)O)cn1C(C(C)(C)C)C2` (stereo not shown) [Example 181, 6-tert-butyl-9-(1,1-difluoropropoxy)-10-methoxy-2-oxo-6,7-dihydrobenzo[a]quinolizine-3-carboxylic acid] showed a pIC50 [1] of 7.92.

`C=CC(F)(F)Oc1cc2c(cc1OC)-c1cc(=O)c(C(=O)O)cn1C(C(C)(C)C)C2` (stereo not shown) [Example 182, 6-tert-butyl-9-(1,1-difluoroallyloxy)-10-methoxy-2-oxo-6,7-dihydrobenzo[a]quinolizine-3-carboxylic acid] gave a pIC50 [1] of 7.80.

`COc1cc2c(cc1OCCCSC)CC(C(C)(C)C)n1cc(C(=O)O)c(=O)cc1-2` (stereo not shown) [Example 183, 6-tert-butyl-10-methoxy-9-(3-methylsulfanylpropoxy)-2-oxo-6,7-dihydrobenzo[a]quinolizine-3-carboxylic acid] showed a pIC50 [2] of 8.70.

In the case of `COc1cc2c(cc1OCCCS(C)(=O)=O)CC(C(C)(C)C)n1cc(C(=O)O)c(=O)cc1-2` (stereo not shown) [Example 186, 6-tert-butyl-10-methoxy-9-(3-methylsulfonylpropoxy)-2-oxo-6,7-dihydrobenzo[a]quinolizine-3-carboxylic acid], the pIC50 [2] was 7.70.

Work on `COc1cc2c(cc1OCCN1CCOCC1)CC(C(C)(C)C)n1cc(C(=O)O)c(=O)cc1-2` (stereo not shown) [Example 189, 6-tert-butyl-10-methoxy-9-(2-morpholinoethoxy)-2-oxo-6,7-dihydrobenzo[a]quinolizine-3-carboxylic acid hydrochloride] yielded a pIC50 [3] of 7.74.

`COc1cc2c(cc1OCCCN1CCOCC1)CC(C(C)(C)C)n1cc(C(=O)O)c(=O)cc1-2` (stereo not shown) [Example 192, 6-tert-butyl-10-methoxy-9-(3-morpholinopropoxy)-2-oxo-6,7-dihydrobenzo[a]quinolizine-3-carboxylic acid hydrochloride] was tested, and the pIC50 [3] was 8.00.

With `COc1cc2c(cc1OCCCN1CCCC1=O)CC(C(C)(C)C)n1cc(C(=O)O)c(=O)cc1-2` (stereo not shown) [Example 195, 6-tert-butyl-10-methoxy-2-oxo-9-[3-(2-oxopyrrolidin-1-yl)propoxy]-6,7-dihydrobenzo[a]quinolizine-3-carboxylic acid] the pIC50 [1] was 7.24.

Molecule `COc1cc2c(cc1OCCCN1CCCC1)CC(C(C)(C)C)n1cc(C(=O)O)c(=O)cc1-2` (stereo not shown) [Example 196, 6-tert-butyl-10-methoxy-2-oxo-9-(3-pyrrolidin-1-ylpropoxy)-6,7-dihydrobenzo[a]quinolizine-3-carboxylic acid] has a pIC50 [1] of 6.92.

`COCCCOc1cc2c(cc1OC)-c1cc(=O)c(C(=O)O)cn1C(C1CCC1)C2` (stereo not shown) [Example 197, 6-cyclobutyl-10-methoxy-9-(3-methoxypropoxy)-2-oxo-6,7-dihydrobenzo[a]quinolizine-3-carboxylic acid] was tested, and the pIC50 [1] was 8.52.

`COc1cc2c(cc1OC)-c1cc(=O)c(C(=O)O)cn1C(CC(F)(F)F)C2` (stereo not shown) [Example 198, 9,10-dimethoxy-2-oxo-6-(2,2,2-trifluoroethyl)-6,7-dihydrobenzo[a]quinolizine-3-carboxylic acid] showed a pIC50 [1] of 6.64.

Work on `COCCCOc1cc2c(cc1OC)-c1cc(=O)c(C(=O)O)cn1C(CC(F)(F)F)C2` (stereo not shown) [Example 199, 10-methoxy-9-(3-methoxypropoxy)-2-oxo-6-(2,2,2-trifluoroethyl)-6,7-dihydrobenzo[a]quinolizine-3-carboxylic acid] yielded a pIC50 [2] of 7.48.

Work on `COCCCOc1cc2c(cc1Cl)-c1cc(=O)c(C(=O)O)cn1C(C(C)(C)C)C2` (stereo not shown) [Example 202, 6-tert-butyl-10-chloro-9-(3-methoxypropoxy)-2-oxo-6,7-dihydrobenzo[a]quinolizine-3-carboxylic acid] yielded a pIC50 [2] of 8.70.

Molecule `COCCCOc1cc2c(cc1Cl)-c1cc(=O)c(C(=O)O)cn1C(C1(C)CC1)C2` (stereo not shown) [Example 205, 10-chloro-9-(3-methoxypropoxy)-6-(1-methylcyclopropyl)-2-oxo-6,7-dihydrobenzo[a]quinolizine-3-carboxylic acid] has a pIC50 [2] of 9.00.

Molecule `COc1cc2c(cc1OC)-c1cc(=O)c(C(=O)O)cn1C(Cc1ccccc1)C2` (stereo not shown) [Example 211, 6-benzyl-9,10-dimethoxy-2-oxo-6,7-dihydrobenzo[a]quinolizine-3-carboxylic acid] has a pIC50 [1] of 5.08.

`COCCCOc1cc2c(c(F)c1F)-c1cc(=O)c(C(=O)O)cn1C(C(C)C)C2` (stereo not shown) [Example 213, 10,11-difluoro-6-isopropyl-9-(3-methoxypropoxy)-2-oxo-6,7-dihydrobenzo[a]quinolizine-3-carboxylic acid] showed a pIC50 [2] of 7.62.

`COc1cc2c(cc1OCCCn1cccn1)CC(C(C)(C)C)n1cc(C(=O)O)c(=O)cc1-2` (stereo not shown) [Example 216, 6-tert-butyl-10-methoxy-2-oxo-9-(3-pyrazol-1-ylpropoxy)-6,7-dihydrobenzo[a]quinolizine-3-carboxylic acid] showed a pIC50 [1] of 8.22.
